From patent publication US8420676B2, “Oxazolidinone derivatives” (Dong-A Pharmaceuticals Co. Ltd., priority 2003, dated 2013)
≈ marks a conversion by molar mass, not a printed value. Where a name gives a salt, the structure may show the parent alone.

Experiments:
[1] = system: methicillin resistant Staphylococcus aureus (MRSA); experiment: Assay for in vitro antibacterial activity, agar dilution (MRSA); details: read-out: Minimum Inhibitory Concentration (MIC50) MRSA
[2] = system: vancomycin resistant Enterococci (VRE); experiment: Assay for in vitro antibacterial activity, agar dilution (VRE); details: Enterococcus, read-out: Minimum Inhibitory Concentration (MIC50) VRE
[3] = Assay for solubility in distilled water (turbidity by naked eye); type: physicochemical; details: average of three runs; for solubility at 2 min: thermodynamic from solid
Protocol: The derivatives of the present invention were added to 200 μl of distilled water and then the solution was stirred for 2 minutes. The turbidity of the solution was watched through naked eye.
When the derivatives were not dissolved completely, 50 μl of distilled water was added to the solution and then the turbidity of the solution was assayed in the above manner to find a point of becoming transparent solution.
When 2 mg of the derivatives was first added to distilled water and completely dissolved so that the solution became transparent, 2 mg of the derivatives was added more to the solution and then state of the solution was watched. The derivatives of the present invention were added to the five times and then solubility of the solution was assayed for. The assay for solubility was carried out the three times repeatedly in the above method and the results were averaged.

| SMILES | MIC50 [1] [µg/mL] | MIC50 [2] [µg/mL] | further results |
| --- | --- | --- | --- |
| CC(=O)NC[C@H]1CN(c2ccc(-c3ccc(-c4nc(CC#N)cs4)cc3)c(F)c2)C(=O)O1 [Compound 31, (S)-3-(4-(4-(4-cyanomethylthiazol-2-yl)phenyl)-3-fluorophenyl)-2-oxo-5-oxazolidinylmethyl acetamide] | 0.5 (≈ 1.11 µM) | 0.5 (≈ 1.11 µM) | – |
| N#CCc1csc(-c2ccc(-c3ccc(N4C[C@H](CO)OC4=O)cc3F)cc2)n1 [Compound 32, (R)-3-(4-(4-(4-cyanomethylthiazol-2-yl)phenyl)-3-fluorophenyl)-5-hydroxymethyl oxazolidin-2-one] | 0.5 (≈ 1.22 µM) | 1 (≈ 2.44 µM) | – |
| COC[C@H]1CN(c2ccc(-c3ccc(-c4nnn(C)n4)nc3)c(F)c2)C(=O)O1 [Compound 33, (R)-3-(4-(2-(2-methyltetrazol-5-yl)pyridin-5-yl)-3-fluorophenyl)-5-methoxymethyl oxazolidin-2-one] | 2 (≈ 5.2 µM) | 2 (≈ 5.2 µM) | – |
| N#CCc1csc(-c2ccc(-c3ccc(N4C[C@H](COC(=O)CN)OC4=O)cc3F)cc2)n1 [Compound 34, (R)-3-(4-(4-(4-cyanomethylthiazol-2-yl)phenyl)-3-fluorophenyl)-5-glycyloxymethyl oxazolidin-2-one trifluoroacetic acid] | 1 (≈ 2.14 µM) | 1 (≈ 2.14 µM) | – |
| NCC(=O)OC[C@H]1CN(c2ccc(-c3ccc(-n4nccn4)nc3)c(F)c2)C(=O)O1 [Compound 35, (R)-3-(4-(2-([1,2,3]triazol-2-yl)pyridin-5-yl)-3-fluorophenyl)-5-glycyloxymethyl oxazolidin-2-one trifluoroacetic acid] | 1 (≈ 2.42 µM) | 1 (≈ 2.42 µM) | – |
| O=C1O[C@@H](Cn2ccnn2)CN1c1ccc(-c2ccc(-c3nc(CO)cs3)cc2)c(F)c1 [Compound 36, (R)-3-(4-(4-(4-hydroxymethylthiazol-2-yl)phenyl)-3-fluorophenyl)-5-([1,2,3]triazol-1-yl)methyl oxazolidin-2-one] | 0.5 (≈ 1.11 µM) | 0.5 (≈ 1.11 µM) | – |
| NCC(=O)OCc1csc(-c2ccc(-c3ccc(N4C[C@H](Cn5ccnn5)OC4=O)cc3F)cc2)n1 [Compound 37, (R)-3-(4-(4-(4-glycyloxymethylthiazol-2-yl)phenyl)-3-fluorophenyl)-5-([1,2,3]triazol-1-yl)methyl oxazolidin-2-one trifluoroacetic acid] | 0.5 (≈ 0.983 µM) | 0.5 (≈ 0.983 µM) | – |
| Cn1nnc(-c2ccc(-c3c(F)cc(N4C[C@H](CO)OC4=O)cc3F)cn2)n1 [Compound 38, (R)-3-(4-(2-(2-methyltetrazol-5-yl)pyridin-5-yl)-3,5-difluorophenyl)-5-hydroxymethyl oxazolidin-2-one] | 0.5 (≈ 1.29 µM) | 1 (≈ 2.58 µM) | – |
| Cc1nnc(-c2ccc(-c3c(F)cc(N4C[C@H](CO)OC4=O)cc3F)cn2)o1 [Compound 39, (R)-3-(4-(2-(2-methyl-[1,3,4]oxadiazol-5-yl)pyridin-5-yl)-3,5-difluorophenyl)-5-hydroxymethyl oxazolidin-2-one] | 1 (≈ 2.58 µM) | 1 (≈ 2.58 µM) | – |
| CNC[C@H]1CN(c2ccc(-c3ccc(-c4nnn(C)n4)nc3)c(F)c2)C(=O)O1 [Compound 41] | 4 (≈ 10.4 µM) | 8 (≈ 20.9 µM) | – |
| C[C@H](N)C(=O)OC[C@H]1CN(c2ccc(-c3ccc(-c4nnn(C)n4)nc3)c(F)c2)C(=O)O1 [Compound 42, (R)-3-(4-(2-(2-methyltetrazol-5-yl)pyridin-5-yl)-3-fluorophenyl)-5-(L-alanyloxy)methyl oxazolidin-2-one trifluoroacetic acid] | – | – | Solubility ([3]; listed as compound 42, trifluoroacetic acid): > 50 mg/mL; Solubility ([3]; trifluoroacetic acid): >50 mg/mL |
| Cn1nnc(-c2ccc(-c3ccc(N4C[C@H](COC(=O)[C@@H]5CCCN5)OC4=O)cc3F)cn2)n1 [Compound 46, (R)-3-(4-(2-(2-methyltetrazol-5-yl)pyridin-5-yl)-3-fluorophenyl)-5-(L-prolinyloxy)methyl oxazolidin-2-one trifluoroacetic acid] | – | – | solubility at 2 min [3]: < 1.63 mg/mL |
| Cn1nnc(-c2ccc(-c3ccc(N4C[C@H](COC(=O)CCN)OC4=O)cc3F)cn2)n1 [Compound 50, (R)-3-(4-(2-(2-methyltetrazol-5-yl)pyridin-5-yl)-3-fluorophenyl)-5-(β-alanyloxy)methyl oxazolidin-2-one hydrochloride] | – | – | Solubility ([3]; hydrochloride): 20.4 mg/mL |
| Cc1nnc(-c2ccc(-c3ccc(N4C[C@H](COC(=O)[C@H](C)N)OC4=O)cc3F)cn2)o1 [Compound 51, (R)-3-(4-(2-(2-methyl-[1,3,4]oxadiazol-5-yl)pyridin-5-yl)-3-fluorophenyl)-5-(L-alanyloxy)methyl oxazolidin-2-one trifluoroacetic acid] | – | – | solubility at 2 min [3]: > 50 mg/mL |
| Cc1nnc(-c2ccc(-c3ccc(N4C[C@H](COC(=O)[C@@H](N)C(C)C)OC4=O)cc3F)cn2)o1 [Compound 53, (R)-3-(4-(2-(2-methyl-[1,3,4]oxadiazol-5-yl)pyridin-5-yl)-3-fluorophenyl)-5-(L-valyloxy)methyl oxazolidin-2-one trifluoroacetic acid] | – | – | solubility at 2 min [3]: 30.3 mg/mL (≈ 64500 µM) |
| Cc1nnc(-c2ccc(-c3ccc(N4C[C@H](COC(=O)[C@@H]5CCCN5)OC4=O)cc3F)cn2)o1 [Compound 55, (R)-3-(4-(2-(2-methyl-[1,3,4]oxadiazol-5-yl)pyridin-5-yl)-3-fluorophenyl)-5-(L-prolinyloxy)methyl oxazolidin-2-one trifluoroacetic acid] | – | – | solubility at 2 min [3]: 7.2 mg/mL (≈ 15400 µM) |
| Cc1nnc(-c2ccc(-c3ccc(N4C[C@H](COC(=O)CCN)OC4=O)cc3F)cn2)o1 [Compound 57, (R)-3-(4-(2-(2-methyl-[1,3,4]oxadiazol-5-yl)pyridin-5-yl)-3-fluorophenyl)-5-(β-alanyloxy)methyl oxazolidin-2-one trifluoroacetic acid] | – | – | solubility at 2 min [3]: > 50 mg/mL |
| Cn1nnnc1-c1ccc(-c2ccc(N3C[C@H](CO)OC3=O)cc2F)cn1 [Compound 61, (R)-3-(4-(2-(1-methyltetrazol-5-yl)pyridin-5-yl)-3-fluorophenyl)-5-hydroxymethyl oxazolidin-2-one] | 0.5 (≈ 1.35 µM) | 0.25 (≈ 0.675 µM) | – |
| Cn1nnnc1-c1ccc(-c2ccc(N3C[C@H](COC(=O)CN)OC3=O)cc2F)cn1 [Compound 62, (R)-3-(4-(2-(1-methyltetrazol-5-yl)pyridin-5-yl)-3-fluorophenyl)-5-glycyloxymethyl oxazolidin-2-one trifluoroacetic acid] | – | – | solubility at 2 min [3]: 28 mg/mL (≈ 65500 µM) |
| Cl.Cn1nnnc1-c1ccc(-c2ccc(N3C[C@H](COC(=O)CN)OC3=O)cc2F)cn1 [Compound 63, (R)-3-(4-(2-(1-methyltetrazol-5-yl)pyridin-5-yl)-3-fluorophenyl)-5-glycyloxymethyl oxazolidin-2-one hydrochloride] | 0.5 | 0.25 | – |
| C[C@H](N)C(=O)OC[C@H]1CN(c2ccc(-c3ccc(-c4nnnn4C)nc3)c(F)c2)C(=O)O1 [Compound 64, (R)-3-(4-(2-(1-methyltetrazol-5-yl)pyridin-5-yl)-3-fluorophenyl)-5-(L-alanyloxy)methyl oxazolidin-2-one trifluoroacetic acid] | – | – | solubility at 2 min [3]: > 50 mg/mL |
| C[C@H](N)C(=O)OC[C@H]1CN(c2ccc(-c3ccc(-c4nnnn4C)nc3)c(F)c2)C(=O)O1.Cl [Compound 65, (R)-3-(4-(2-(1-methyltetrazol-5-yl)pyridin-5-yl)-3-fluorophenyl)-5-(L-alanyloxy)methyl oxazolidin-2-one hydrochloride] | 0.5 | 0.25 | – |
| CC(C)[C@H](N)C(=O)OC[C@H]1CN(c2ccc(-c3ccc(-c4nnnn4C)nc3)c(F)c2)C(=O)O1 [Compound 66, (R)-3-(4-(2-(1-methyltetrazol-5-yl)pyridin-5-yl)-3-fluorophenyl)-5-(L-valyloxy)methyl oxazolidin-2-one trifluoroacetic acid] | – | – | solubility at 2 min [3]: 4.7 mg/mL (≈ 10000 µM) |
| CC(C)[C@H](N)C(=O)OC[C@H]1CN(c2ccc(-c3ccc(-c4nnnn4C)nc3)c(F)c2)C(=O)O1.Cl [Compound 67, (R)-3-(4-(2-(1-methyltetrazol-5-yl)pyridin-5-yl)-3-fluorophenyl)-5-(L-valyloxy)methyl oxazolidin-2-one hydrochloride] | 0.5 | 0.25 | – |
| Cl.Cn1nnnc1-c1ccc(-c2ccc(N3C[C@H](COC(=O)CCN)OC3=O)cc2F)cn1 [Compound 69, (R)-3-(4-(2-(1-methyltetrazol-5-yl)pyridin-5-yl)-3-fluorophenyl)-5-(β-alanyloxy)methyl oxazolidin-2-one hydrochloride] | 0.5 | 0.25 | – |
| Cn1nnnc1-c1ccc(-c2ccc(N3C[C@H](Cn4ccnn4)OC3=O)cc2F)cn1 [Compound 71, (R)-3-(4-(2-(1-methyltetrazol-5-yl)pyridin-5-yl)-3-fluorophenyl)-5-([1,2,3]triazol-1-yl)methyl oxazolidin-2-one] | 0.5 (≈ 1.19 µM) | 0.125 (≈ 0.297 µM) | – |
| Cn1nnc(-c2ccc(-c3ccc(N4C[C@H](COP(=O)(O)O)OC4=O)cc3F)cn2)n1 [Compound 72, mono-[(R)-[3-(4-(2-(2-methyltetrazol-5-yl)pyridin-5-yl)-3-fluorophenyl)-2-oxo-5-oxazolidinyl]methyl]phosphate] | 32 (≈ 71.1 µM) | 32 (≈ 71.1 µM) | – |
| Cn1nnnc1-c1ccc(-c2ccc(N3C[C@H](COP(=O)(O)O)OC3=O)cc2F)cn1 [Compound 73, mono-[(R)-[3-(4-(2-(1-methyltetrazol-5-yl)pyridin-5-yl)-3-fluorophenyl)-2-oxo-5-oxazolidinyl]methyl]phosphate] | 32 (≈ 71.1 µM) | 32 (≈ 71.1 µM) | – |
| CC(=O)NC[C@H]1CN(c2ccc(N3CCOCC3)c(F)c2)C(=O)O1 [Zyvox, reference compound] | 2 (≈ 5.93 µM) | 2 (≈ 5.93 µM) | – |
